Data from PubChem BioAssay AID330 (DTP/NCI, 2004).
Several values for one entry are separate records, joined by “and”; a condition that tells them apart may be missing. Identical values can stand only once. Toxic doses and inconclusive results are not listed. Rule for the calls: active = survival T/C of 150% or more; inactive = T/C below 125% in these data.

Test system: P388 leukemia ip, CD2F1 mice, survival T/C
Test: NCI In Vivo Anticancer Drug Screen. Data for tumor model P388 Leukemia (intraperitoneal) in CD2F1 (CDF1) mice
Details: endpoint: median survival time, higher = longer survival
Procedure, shortened: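 Mice carrying the transplanted tumor received test compound or vehicle. Survival was recorded in each group, and the value is the treated-group measurement divided by that of the vehicle-treated control group.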

[1] = dose: 50.0 mg/kg/injection, schedule: Q01DX009 (ip), vehicle: other
[2] = dose: 100.0 mg/kg/injection, schedule: Q01DX009 (ip), vehicle: other
[3] = dose: 200.0 mg/kg/injection, schedule: Q01DX009 (ip), vehicle: other
[4] = dose: 400.0 mg/kg/injection, schedule: Q01DX009 (ip), vehicle: other
[5] = dose: 100.0 mg/kg/injection, schedule: Q04DX003 (ip), vehicle: Klucel (hydroxypropylcellulose) (HPC)
[6] = dose: 200.0 mg/kg/injection, schedule: Q04DX003 (ip), vehicle: Klucel (hydroxypropylcellulose) (HPC)
[7] = dose: 400.0 mg/kg/injection, schedule: Q04DX003 (ip), vehicle: Klucel (hydroxypropylcellulose) (HPC)
[8] = dose: 12.5 mg/kg/injection, schedule: Q01DX009 (ip), vehicle: saline with Tween-80
[9] = dose: 25.0 mg/kg/injection, schedule: Q01DX009 (ip), vehicle: saline with Tween-80
[10] = dose: 50.0 mg/kg/injection, schedule: Q01DX009 (ip), vehicle: saline with Tween-80
[11] = dose: 100.0 mg/kg/injection, schedule: Q01DX009 (ip), vehicle: saline with Tween-80
[12] = dose: 200.0 mg/kg/injection, schedule: Q01DX009 (ip), vehicle: saline with Tween-80
[13] = dose: 400.0 mg/kg/injection, schedule: Q01DX009 (ip), vehicle: saline with Tween-80

Measured: T/C

Nc1nc(N)c2c(n1)=NC(c1cccc3ccccc13)N=2 (centres undefined)
inactive: dose: 25.0 mg/kg/injection, schedule: Q01DX009 (ip), vehicle: other 101 % of control | [1] 106 % of control | [2] 102 % of control | [3] 99 % of control | [4] 106 % of control

CC1(C)C(C(=O)/C=C/c2ccccc2)C1[N+](=O)[O-] (centres undefined)
inactive: dose: 50.0 mg/kg/injection, schedule: Q04DX003 (ip), vehicle: Klucel (hydroxypropylcellulose) (HPC) 96 % of control | [5] 96 % of control | [6] 100 % of control | [7] 101 % of control

O=[N+]([O-])[O-].OCCNCCNCC[OH2+].OCCNCCNCC[OH2+].[Co+2]
inactive: dose: 50.0 mg/kg/injection, schedule: Q01DX009 (ip), vehicle: saline 95 % of control | dose: 100.0 mg/kg/injection, schedule: Q01DX009 (ip), vehicle: saline 104 % of control | dose: 200.0 mg/kg/injection, schedule: Q01DX009 (ip), vehicle: saline 103 % of control

CCCOC(=O)/C=C(\I)C(=O)OCCC
inactive: [8] 119 % of control | [9] 110 % of control | [10] 110 % of control and 92 % of control

COc1ccc(/C=N/Nc2ccccc2)cc1
inactive: [10] 99 % of control | [11] 92 % of control | [12] 99 % of control | [13] 94 % of control

O=C(S)CC(O)(c1ccccc1)c1ccccc1
inactive: [5] 105 % of control | [6] 105 % of control | [7] 101 % of control

CSc1nc(N)nc2c1ncn2C1OC(CO)C(O)C1O (centres undefined)
inactive: [11] 90 % of control | dose: 100.0 mg/kg/injection, schedule: Q04DX003 (ip), vehicle: saline sonified 100 % of control | [12] 86 % of control | dose: 200.0 mg/kg/injection, schedule: Q04DX003 (ip), vehicle: saline sonified 100 % of control | [13] 100 % of control | dose: 400.0 mg/kg/injection, schedule: Q04DX003 (ip), vehicle: saline sonified 95 % of control

C=CC1(C)CC(=O)C2(O)C(C)(O1)C(OC(C)=O)C(O)C1C(C)(C)CCC(O)C12C (centres undefined)
inactive: dose: 2.0 mg/kg/injection, schedule: Q01DX005 (ip), vehicle: other 99 % of control | dose: 4.0 mg/kg/injection, schedule: Q01DX005 (ip), vehicle: other 100 % of control | dose: 8.0 mg/kg/injection, schedule: Q01DX005 (ip), vehicle: other 95 % of control | dose: 16.0 mg/kg/injection, schedule: Q01DX005 (ip), vehicle: other 94 % of control

CSCC(CO)NC(=O)/C=C/c1c(C)[nH]c(=O)[nH]c1=O (centres undefined)
inactive: [1] 86 % of control and 101 % of control | [2] 89 % of control and 111 % of control | [3] 94 % of control | [4] 88 % of control

CCC(c1ccc(OC)cc1)C(NC(=S)Nc1cccc(C)c1)c1ccc(OC)cc1 (centres undefined)
inactive: dose: 100.0 mg/kg/injection, schedule: Q01DX001 (ip), vehicle: saline with Tween-80 90 % of control | dose: 200.0 mg/kg/injection, schedule: Q01DX001 (ip), vehicle: saline with Tween-80 92 % of control | dose: 400.0 mg/kg/injection, schedule: Q01DX001 (ip), vehicle: saline with Tween-80 93 % of control

COC1=C(OC)C(=O)C(Sc2ccc3ccccc3c2)=CC1=O
inactive: dose: 6.25 mg/kg/injection, schedule: Q01DX009 (ip), vehicle: saline with Tween-80 103 % of control and 104 % of control | [8] 104 % of control | [9] 104 % of control and 119 % of control | [10] 100 % of control and 111 % of control | [11] 100 % of control
